Reference: US20100261642A1, “NUTRITIONAL FORMULATION WITH HIGH ENERGY CONTENT” (N.V. NUTRICIA, priority 2007, published 2010)

System: intestinal epithelial cell lines T84
Assay: IL-4 mediated barrier disruption in T84 monolayers (flux and transepithelial resistance)
Format: cell-based, human
Conditions: for protective effect on IL-4 mediated barrier destruction (4 kD dextran flux), FIG. 1: 10 μM and 100 μM, time and dose dependent; for effect on IL-4 mediated barrier disruption (flux), in words: 100 μM, Table 1 summary, compared to control
Method: Monolayers (MC) of intestinal epithelial cell lines T84 (ATCC, USA) were cultured on transwell filters (Corning, Costar BV, The Netherlands) allowing both mucosal and serosal sampling and stimulation of human intestinal epithelial cells. Two weeks post confluency the monolayers were incubated in the presence of IL-4 (2 ng/ml, serosal compartment, Sigma, USA) with or without polyunsaturated fatty acids ARA, DHA, GLA, EPA, or control palmitic acid (10 μM or 100 μM, mucosal compartment, Sigma, St. Louis, USA). Cells were pre-incubated with ARA, DHA, EPA, or palmitic acid for 48 hr prior to the IL-4 incubation. The co-incubation of PUFA's and palmitic acid with IL-4 was continued for another 48 hr; while culture medium and additives were changed every 24 hr. The epithelial barrier function was determined by measuring the transepithelial resistance (TER) and permeability.

| Compound | protective effect on IL-4 mediated barrier destruction (4 kD dextran flux), FIG. 1 | effect on IL-4 mediated barrier disruption (flux), in words | IL-4 Flux (100 μM fatty acid, mucosal, IL-4 2 ng/ml, serosal, 48 hr pre-incubation + 48 hr co-incubation, permeability (4 kD dextran flux)) | IL-4 TER (100 μM fatty acid, mucosal, IL-4 2 ng/ml, serosal, 48 hr pre-incubation + 48 hr co-incubation, transepithelial resistance) |
| --- | --- | --- | --- | --- |
| CCCCC/C=C\C/C=C\C/C=C\C/C=C\CCCC(=O)O [ARA, arachidonic acid] | protect against IL-4 mediated barrier disruption | inhibit the increased flux caused by IL-4 | – | – |
| CC/C=C\C/C=C\C/C=C\C/C=C\C/C=C\C/C=C\CCC(=O)O [DHA, docosahexaenoic acid] | – | – | 271 | 547 |
| CCCCC/C=C\C/C=C\C/C=C\CCCCC(=O)O [GLA] | protect against IL-4 mediated barrier disruption | – | – | – |
| CCCCCCCCCCCCCCCC(=O)O [Palmitic acid, palmitic acid, reference compound] | – | detrimental effect | – | – |
